{
  "source": "patent US20230241257A1",
  "about": "“BIOTIN-MODIFIED DIMER AND USE THEREOF” (THE UNIVERSITY OF TOKYO, priority 2020, published 2023)",
  "key": {"[1]": {"test_system": "human stomach cancer cells (MKN-45)", "test": "Experiment 8: therapeutic effects and toxicity of Cupid-scFv antibody (24 h before)+^211At-psyche-BR in MKN-45 cancer-bearing mouse models", "format": "in vivo, mice (BALB/cSlc nu/nu)", "conditions": "for general states and body weight: Day 5, urgent euthanasia", "procedure": "The present experiment used human stomach cancer cells (MKN-45) expressing carcinoembryonic antigen (CEA). 9-week-old male immunodeficient mice (BALB/cSlc nu/nu) were used. MKN-45 cells (5×10^6/0.1 ml) were transplanted into the mice's subcutis on the right shoulder dorsal side to produce cancer-bearing mouse models. At the time point in which the tumor volume became a predetermined size (on Day 8 after the transplantation), the mice were divided into seven groups, which were for use in the evaluation of the therapeutic effects, and a biodistribution group (6 hours) of cancer-bearing mouse models having this tumor size. The Cupid-scFv antibody was administered 100 μmol/0.1 ml via the caudal vein of each mouse. Twenty-four hours after administration of the Cupid-scFv antibody, ^211At-psyche-BR was administered via the caudal vein of each mouse in an amount of 5.55 MBq, 3.70 MBq, 1.85 MBq, 1.11 MBq, or 0.37 MBq.\nTo a control group, a solvent for the ^211At-psyche-BR was administered (solvent group). A group to which only cupid was administered was defined as a Cupid group. The mice's general states were observed and recorded immediately after administration of the ^211At-psyche-BR and at 3 hours after the administration. Moreover, until Day 14, after administration of the ^211At-psyche-BR, observation of the general states and the measurement of the body weight was carried out every day. After Day 14 of the administration of the ^211At-psyche-BR, observation of the general states and the measurement of the body weight was carried out every other day. The tumor size was measured every other day after the treatment with the ^211At-psyche-BR. On Day 36, after the treatment with the ^211At-psyche-BR, observation of the general states, the measurement of the body weight, and the measurement of the tumor size were carried out, and the mice were then euthanized by collecting whole blood from the heart of each mouse under isoflurane anesthesia. Tumor tissues and major tissues/organs were excised from the mice, weighed, and immobilized with formalin."}, "[2]": {"test_system": "human stomach cancer cells (MKN-45)", "test": "Experiment 2: pharmacokinetics of Cupid-scFv antibody (24 h before)+^211At-psyche-B in MKN-45 cancer-bearing mouse models", "format": "in vivo, mice (BALB/cSlc nu/nu)", "procedure": "The present experiment used highly CEA-expressing human stomach cancer cells (MKN-45). 9-week-old male immunodeficient mice (BALB/cSlc nu/nu) were used. MKN-45 cells (1×10^7/0.1 ml) were transplanted into the mice's subcutis on the right shoulder dorsal side to produce MKN-45 cancer-bearing mouse models. The mice were divided into four groups when the tumor volume became a predetermined size (on Day 13 after the transplantation). A Cupid-scFv antibody was administered in 100 μmol/0.1 ml via the caudal vein of each mouse. Twenty-four hours after administration of the Cupid-scFv antibody, ^211At-psyche-B (about 0.25 MBq/100 ml) was administered via the caudal vein of the mice. One minute, 1 hour, 6 hours, and 24 hours after administration of the ^211At-psyche-B, the mice were euthanized by collecting whole blood from the heart of each mouse under isoflurane anesthesia, and tumor tissues and normal tissues/organs were then excised. Normal tissues/organs: skin (lower right limb), muscle (right gastrocnemius muscle), heart, lung, spleen, pancreas, white fat (upper portion of right side testis), testis (right side), stomach (without contents), small intestine, large intestine, liver, brown fat, submandibular gland, thyroid gland (together with trachea), bone (right femur), cerebrum, eyeballs (both sides), bladder, and urine; the remaining residues were divided into three equal parts, and the three equal parts were defined to be residue-1, residue-2, and residue-3. After that, the weights of blood, plasma, urine, tumor, and normal tissues/organs were measured, and the radioactivity thereof was then measured using a γ counter. The amounts of the ^211At-psyche-B (radioactivity) accumulated in the blood, plasma, urine, tumor, and normal tissues/organs were calculated. That is to say, the rates (% ID/g) of the ^211At-psyche-B accumulated per unit weight (g) of the blood, plasma, urine, tumor, and normal tissues/organs, in the administered ^211At-psyche-B, were shown. Regarding accumulation of the ^211At-psyche-B in the thyroid gland, since the weight of the thyroid gland could not be precisely measured, it was shown that the rate (% ID) of the ^211At-psyche-B accumulated in the thyroid gland in the administered ^211At-psyche-B."}},
  "data": [
    {"smiles": "N=C1N[C@H]2[C@H](CS[C@H]2CCCCNC(=O)CCCCCC(=O)Nc2cc(NC(=O)CCCCCC(=O)NCCCC[C@@H]3SC[C@@H]4NC(=N)N[C@@H]43)cc(C(=O)NCCOCCOCCNC(=O)c3cccc([211At])c3)c2)N1", "note": "[^211At-psyche-BR]", "values": [
      {"measurement": "general states and body weight changes", "setting": "[1]; 0.37 MBq", "value": "almost the same levels as in the control group"},
      {"measurement": "tumor growth compared with the control group", "setting": "[1]; 0.37 MBq, until Day 10", "value": "tumor growth was suppressed"},
      {"measurement": "general states and body weight changes", "setting": "[1]; 1.11 MBq", "value": "almost the same levels as in the control group"},
      {"measurement": "tumor growth compared with the control group", "setting": "[1]; 1.11 MBq, until Day 10", "value": "tumor growth was suppressed"},
      {"measurement": "tumor growth compared with the control group", "setting": "[1]; 1.85, 1.11 and 0.37 MBq, after Day 10", "value": "the tumor growth was suppressed in an amount-dependent manner"},
      {"measurement": "tumor growth compared with the control group", "setting": "[1]; 1.85 MBq, until Day 10", "value": "tumor growth was suppressed"},
      {"measurement": "general states and body weight", "setting": "[1]; 3.70 MBq", "value": "general states and body weight reduction became severe"},
      {"measurement": "general states and body weight", "setting": "[1]; 5.55 MBq", "value": "general states and body weight reduction became severe"}
    ]},
    {"smiles": "N=C1N[C@H]2[C@H](CS[C@H]2CCCCC(=O)NCCCCCC(=O)Nc2cc(NC(=O)CCCCCNC(=O)CCCC[C@@H]3SC[C@@H]4NC(=N)N[C@@H]43)cc(C(=O)NCCOCCOCCNC(=O)c3cccc([211At])c3)c2)N1", "note": "[^211At-psyche-B]", "values": [
      {"measurement": "Accumulation in the kidney", "setting": "[2]; after 1 minute", "value": "29.3±1.5", "unit": "% ID/g"},
      {"measurement": "Accumulation in the liver", "setting": "[2]; after 1 minute", "value": "17.4±2.3", "unit": "% ID/g"},
      {"measurement": "Accumulation in the lung", "setting": "[2]; after 1 minute", "value": "15.9±1.7", "unit": "% ID/g"},
      {"measurement": "Accumulation in the spleen", "setting": "[2]; after 1 minute", "value": "4.9±1.7", "unit": "% ID/g"},
      {"measurement": "Accumulation in the tumor", "setting": "[2]; after 1 minute", "value": "0.6±0.1", "unit": "% ID/g"},
      {"measurement": "Clearance from the blood", "setting": "[2]; after 1 minute", "value": "46.4±1.4", "unit": "% ID/g"},
      {"measurement": "tumor-to-blood ratio", "setting": "[2]; after 1 minute", "value": "0.01±0.00"},
      {"measurement": "tumor-to-muscle ratio", "setting": "[2]; after 1 minute", "value": "1.5±0.3"},
      {"measurement": "Accumulation in the kidney", "setting": "[2]; after 1 hour", "value": "14.2±1.3", "unit": "% ID/g"},
      {"measurement": "Accumulation in the liver", "setting": "[2]; after 1 hour", "value": "13.6±1.4", "unit": "% ID/g"},
      {"measurement": "Accumulation in the lung", "setting": "[2]; after 1 hour", "value": "14.7±3.6", "unit": "% ID/g"},
      {"measurement": "Accumulation in the spleen", "setting": "[2]; after 1 hour", "value": "7.9±1.1", "unit": "% ID/g"},
      {"measurement": "Accumulation in the tumor", "setting": "[2]; after 1 hour", "value": "3.2±0.4", "unit": "% ID/g"},
      {"measurement": "Clearance from the blood", "setting": "[2]; after 1 hour", "value": "40.6±3.2", "unit": "% ID/g"},
      {"measurement": "tumor-to-blood ratio", "setting": "[2]; after 1 hour", "value": "0.08±0.01"},
      {"measurement": "tumor-to-muscle ratio", "setting": "[2]; after 1 hour", "value": "5.2±1.0"},
      {"measurement": "Accumulation in the kidney", "setting": "[2]; after 6 hours", "value": "9.8±0.7", "unit": "% ID/g"},
      {"measurement": "Accumulation in the liver", "setting": "[2]; after 6 hours", "value": "16.0±1.4", "unit": "% ID/g"},
      {"measurement": "Accumulation in the lung", "setting": "[2]; after 6 hours", "value": "11.2±0.9", "unit": "% ID/g"},
      {"measurement": "Accumulation in the spleen", "setting": "[2]; after 6 hours", "value": "10.1±0.3", "unit": "% ID/g"},
      {"measurement": "Accumulation in the tumor", "setting": "[2]; after 6 hours", "value": "11.8±1.5", "unit": "% ID/g"},
      {"measurement": "Clearance from the blood", "setting": "[2]; after 6 hours", "value": "29.4±0.9", "unit": "% ID/g"},
      {"measurement": "tumor-to-blood ratio", "setting": "[2]; after 6 hours", "value": "0.40±0.05"},
      {"measurement": "tumor-to-muscle ratio", "setting": "[2]; after 6 hours", "value": "14.0±0.9"},
      {"measurement": "Accumulation in the thyroid gland", "setting": "[2]; after 24 h", "value": "0.16±0.06", "unit": "% ID"},
      {"measurement": "Accumulation in the kidney", "setting": "[2]; after 24 hours", "value": "4.7±0.8", "unit": "%"},
      {"measurement": "Accumulation in the liver", "setting": "[2]; after 24 hours", "value": "15.5±0.1", "unit": "%"},
      {"measurement": "Accumulation in the lung", "setting": "[2]; after 24 hours", "value": "4.2±0.5", "unit": "%"},
      {"measurement": "Accumulation in the spleen", "setting": "[2]; after 24 hours", "value": "9.6±2.4", "unit": "%"},
      {"measurement": "Accumulation in the tumor", "setting": "[2]; after 24 hours", "value": "16.3±4.1", "unit": "%"},
      {"measurement": "Clearance from the blood", "setting": "[2]; after 24 hours", "value": "6.2±1.3", "unit": "% ID/g"},
      {"measurement": "administered amount excreted (blood)", "setting": "[2]; after 24 hours", "value": 94, "unit": "%"},
      {"measurement": "tumor-to-blood ratio", "setting": "[2]; after 24 hours", "value": "2.63±0.10"},
      {"measurement": "tumor-to-muscle ratio", "setting": "[2]; after 24 hours", "value": "26.5±4.6"}
    ]}
  ]
}
